Results from US20040143025A1, “Carbon monoxide generating compunds for treatment of vascular, inflammatory and immune disorders” (priority 2002, published 2004).
Entries after “also recorded” stand apart in the source; their conditions may differ.

How the values were obtained:
HO-1 [1] = assay: Western blot of liver samples, HO-1; set-up: species or system rat; settings: 2 h after perfusion
Procedure: Western blots. Protein was extracted from liver samples with PBSTDS buffer (50 mM Tris, 150 mM NaCl, 0.1% SDS, 1% sodium deoxycholate, and 1% triton X-100, pH 7.2). Proteins (30 μg/sample) in SDS-loading buffer (50 mM Tris, pH 7.6, 10% glycerol, 1% SDS) were subjected to 12% SDS-polyacrylamide gel electrophoresis and transferred to nitrocellulose membrane (Bio-Rad, Hercules, Calif.). The gel was stained with coomassie blue to document equal protein loading. The membrane was blocked with 3% dry milk and 0.1% Tween 20 (USB, Cleveland, Ohio) in PBS and incubated with rabbit anti-rat HO-1 or iNOS polyclonal Abs (SangStat, Fremont, Calif.). Relative protein quantities were determined using a densitometer (Kodak Digital Science 1D Analysis Software, Rochester, N.Y.).

HO-1 [2] = assay: ELISA for HO-1 protein expression in liver; set-up: species or system rat; settings: ZnPP = pretreatment then CO perfusion; CO = CO only
Procedure: ELISA for HO-1 protein expression. Livers were homogenized on ice in a Tris-HCl lysis buffer (pH 7.4) containing 0.5% Triton X-100 and protease inhibitors. Flat-bottom microtiter 96-well plates (Nunc) were coated with 7 μg/ml anti-HO-1 mAb (OSA-111, Stressgen, Canada) in PBS for 18 h at room temperature. Unbound Ab was removed by washing (wash buffer: 0.05% Tween 20 in 50 mM phosphate buffer, pH 7.5) and remaining binding sites were blocked by incubation with a 5% BSA/PBS solution (1 h). Recombinant HO-1 (SPP-730) and tissue homogenate were diluted in assay diluent (0.5% BSA/0.05% Tween 20/PBS) and incubated in anti-HO-1 mAb coated wells for 1 h at room temperature. Subsequently, plates were washed three times with wash buffer and incubated with rabbit anti-HO-1 polyclonal antibody (SPA-895, Stressgen; diluted 1:1000 in assay diluent) for 30 min at room temperature. Bound rabbit IgG was detected with a donkey anti-rabbit (gG-HRP conjugate (711-035-152, Jackson Research Laboratories; diluted 1:8000 in assay diluent). Unbound secondary Ab was removed by washing and bound HRP was detected using 1 mg/ml OPD in substrate buffer (0.1% H2O2, 0.1 M citric acid, 0.2 M Na2HPO4, pH 5.0). The color reaction was stopped with 1 M HCl and the optical density at 490 nm was measured.

Lewis rats = assay: Experimental autoimmune encephalomyelitis (EAE) model of multiple sclerosis; type: in vivo, rat; settings: daily oral administration from day 8 post-inoculation; scale 0 to 3
Procedure: Multiple sclerosis is characterized by an autoimmune and inflammatory response directed against myelin sheath and oligodendrocytes, resulting in demyelination in the central nervous system. A well-established animal model of multiple sclerosis, experimental autoimmune encephalomyelitis (EAE), was used to examine the effect of the subject alkyl halides on this autoimmune and inflammatory condition of the central nervous system. Lewis rats were given intradermal footpad injections of 50 μg guinea pig myelin basic protein (MBP) and complete Freund's adjuvant (CFA) to induce experimental allergic encephalomyelitis (EAE). Daily oral administration of vehicle, methylene chloride or iodoform was started on day 8 post-inoculation and continued to the end of the study. Animals were monitored and scored on a 0 (normal) to 3 (complete hindlimb paralysis) scale. Daily mean±SD clinical scores are shown.

[3] = tested on: LEW rats transplanted with DA livers; assay: Allogeneic orthotopic liver transplant (OLT) model: survival, histology, sGOT; type: in vivo, rat
Procedure: Ad-HO-1 transduction in OLT model. Male Dark-Agouti (DA; RT1^3) and Lewis (LEW; RT1′) rats of 10-16 weeks of age were purchased from Harlan Sprague Dawley, Inc. (San Diego, Calif.), and maintained under conditions approved by the UCLA Chancellor's Animal Research Committee (CARC). All animals were housed in microisolator cages in a virus free facility and fed laboratory chow ad libitum. Orthotopic liver transplants were performed between DA donors and LEW rat recipients, as described previously. Amersi et al., supra; Kato et al., Am. J. Transplant 1:121-28 (2001). Ex-vivo gene transfer into liver grafts was performed during cold preservation (4° C.) via perfusion of the portal vein with 2 ml of cold lactated Ringer's solution containing 5×10^10 pfu (plaque-forming unit) of Ad-HO-1. Control grafts were perfused with 5×10^10 pfu of Ad-β-gal. Animals were followed for survival. Separate groups of recipients were sacrificed at day 3, 7 and 10 post-transplant, OLTs were harvested for histological evaluation, whereas blood samples were collected for measurement of sGOT levels.
Methylene chloride treatment in OLT model To investigate whether CO represents a functional downstream HO-1 mediator in this system, methylene chloride was used as a carbon monoxide generator. As indicated above, the metabolism of MC is known to result in the exclusive production of CO2 and CO. Gargas et al., supra. LEW rats transplanted with DA livers were fed with methylene chloride (500 mg/kg) 2 hr prior to the transplant, followed by a 2-week post-transplant course (500 mg/kg/day). The blood CoHb levels in experimental animals were measured at day 0, 5, and 10. Animal survival was screened and OLTs were analyzed histologically.
Histology. Liver allografts were harvested at day 3, 7 and 10 post-transplant. The tissue was sliced into small pieces, preserved in 10% neutral-buffered formalin, cut into 5-μm section, and stained with hematoxylin and eosin (H&E) by standard methods.

| SMILES | HO-1 protein accentuated (Western blot) vs air alone (HO-1 [1]) | HO-1 protein expression in liver samples (ELISA) (HO-1 [2]) | clinical score / clinical signs (Lewis rats) | hepatic parenchyma viable / preserved ([3]; OLT by day 10 post-transplant) | histological grade of rejection ([3]; OLT by day 10 post-transplant) | recipients/livers surviving >120 days ([3]; allogeneic OLT) | mean survival time [MST]±SD ([3]; allogeneic OLT, vectors 5×10^10 pfu ex vivo perfusion, methylene chloride 500 mg/kg/day × 14 days) [days] | rat recipients surviving >3 weeks ([3]; daily feedings with methylene chloride alone) | tolerability of regimen ([3]; methylene chloride 500 mg/kg/day × 14 days, OLT recipients) | Mean (days) recipient survival ([3]; treatment protocol as in Table 1) [days] |
| --- | --- | --- | --- | --- | --- | --- | --- | --- | --- | --- |
| [C-]#[O+] [CO, carbon monoxide] | ca. 3 fold | 7.51±2.13 ng of HO-1/mg lysate |  |  |  |  |  |  |  |  |
| ClCCl [methylene chloride] |  |  | show improvement over the controls | more than 80% | mild to moderate rejection | two out of seven | > 47 ± 46 | ca. 50% | well tolerated and no side effects were noted; also recorded: well tolerated | >47 |
